Structures can show the parent of a compound that is named as a salt.
Columns and labels:
[1] = test system: HT-29 Cell line; assay: Cell growth inhibition of cancer cell lines (SRB assay), HT-29; assay type: cell-based
Description: (§1) The tests on cell growth inhibitory activity were performed with respect to A549 (US, ATCC), SK-OV-3 (Korea Research Institute of Chemical Technology; KRICT), HT-29 (US, ATCC), MCF-7 cell (US, ATCC), using Sulforhodamin-B <SRB> Assay (1989, US National Cancer Institute (NCI)) which was developed to measure the in vitro anti-cancer activity of the drug. […] The samples of the compounds of the Examples according to the present invention were used for the tests, and before the tests, the samples were dissolved in dimethylsulfoxide and diluted with the culture medium (RPMI 1640) to be used. The final concentration of the sample was varied in the range of 0.3˜100 μM. After the culture medium was removed from the 96 well plates, the diluted sample solution was added by 100 μl, and cultured in 37° C., 5% CO2 culture medium for 72 hours. The time zero (Tz) plates were collected at the time point of adding the sample. Upon completing the culture, the medium was removed from each well along with Tz plate, then cold 10% trichloroacetic acid (TCA) was added by 100 μl per well. The wells were left at 4° C. for 1 hour, so that the cells were fixed into the bottom of the plates. After the cells were fixed, the plates were rinsed with water five to six times to remove the remaining trichloroacetic acid solution, and moisture was completely dried at room temperature. The cells were dyed for 30 minutes by adding the dye solution in which 0.4% sulforhodamine-B was dissolved in 1% acetic acid solution, by 100 μl per dried wells. The above was rinsed again with 1% acetic acid solution five to six times to ensure that sulforhodamine-B which had not attached to the cells was removed. The plates were again dried at room temperature. 100 μl of 10 mM tris-buffer was then added to dissolve the dye, and the optical density (OD) at 520 nm was measured with the microplate reader. GI50 of the sample regarding cancer cell was calculated as explained below. Time zero (Tz), control value (C) and test value (T) were obtained, in which Tz corresponds to OD value of time at which the sample is applied and culture is started, C corresponds to OD value of the well which is cultured without treatment with the sample, and T corresponds to OD value of the well which is treated with the sample and then cultured. The degree of cell growth inhibition of the sample was measured using: If […] [Mathematical Formula 1]
(§2) Further, the ability of Examples 2, 42, 49, 52, 72, 74, 101 to increase growth inhibition effect of temozolomide and SN-38 at 2 μM was determined.

[2] = test system: MCF-7 Cell line; assay: Cell growth inhibition of cancer cell lines (SRB assay), MCF-7; assay type: cell-based
Description: as §1, §2

[3] = test system: SK-OV-3 Cell line; assay: Cell growth inhibition of cancer cell lines (SRB assay), SK-OV-3; assay type: cell-based
Description: as §1, §2

[4] = test system: A549 cell line; assay: Cell growth inhibition of cancer cell lines (SRB assay), A549; assay type: cell-based
Description: as §1, §2

[5] = test system: Rat Middle Cerebral Artery Occlusion (MCAO) Animal Model; assay: Neuroprotective effect in rat middle cerebral artery occlusion (MCAO) animal model; assay type: in vivo; settings: for Infarct volume: 22 hours after reperfusion; for Percent of infraction decrease: vs control group
Description: Animal test was performed on male Sprague Dawley rats (KOATECH Co., Ltd., South Korea) weighing 280 to 340 g. Animals were given food and water ad libitum and adapted to the test environment for 1 week. The modified intraluminal filament technique as described by Zea Longa et al. (Stroke, 20:84-91, 1989) was used to induce MCAO. The rats were developed ischemic regions due to insufficient blood flow in striatum and temporal lobe which are the domain regions of the middle cerebral artery and depletion of oxygen and energy sources after the middle cerebral artery occlusion. In order to occlude the middle cerebral artery with the intraluminal suture method, 4-0 nylon suture was cut to 22 mm, and 2 mm of the terminal end was rounded by flame heating. In order to increase the effect of damage preventing and occlusion in the lumen, a probe was coated with silicon to 0.3 mm.
Rats were anaesthetized with isoflurane (3% for induction and 2% for surgical procedure) in a mixture of oxygen/nitrous oxide (30%/70%). The left common carotid artery (CCA) was exposed through a ventral midline incision in the neck. The external carotid artery (ECA), internal carotid artery (ICA), and CCA were carefully isolated and maintained in a Y-shape by use of silk suture. The upper external carotid artery was blocked by a thread, and a minute hole is bored 1 mm below the spot at which the external and internal carotid arteries bifurcate from the common carotid. The probe was inserted in the minute hole and fixed by a thread. The neck wound was closed and each animal was allowed to recover from anesthesia. 120 min after MCA occlusion, each animal was re-anesthetized, and the neck wound was re-opened to remove the thread. Along with the reperfusion, the compound of Example 74 was injected intravenously. 22 hours after the reperfusion, the animals were sacrificed by CO2 suffocation, decapitated, and 2 mm thick six coronal sections were obtained using rodent brain matrix. The coronal slices were incubated in phosphate-buffered saline (PBS) containing 2% 2,3,5-triphenyl tetrazolium chloride (TTC, Sigma) at 37° C. for 30 min, and then fixed in 4% phosphate-buffered formalin. After fixation these brain sections were scanned using a flat-bed scanner. The infarct area was determined by image J (NIH image version 1.59), and the total infarct volume was calculated by: Infarct volume (mm^3)=infarct […]×thickness of slice (2 mm) [Mathematical formula 3]
The statistical analysis of the decrease of infarct volume was performed by Mann Whitney test (*:p<0.05, **:p<0.01).

Structure (SMILES): COc1cc(CN2CCOCC2)cc2[nH]c(=O)c3c(c12)NCCC3 [Example 74, 10-Methoxy-8-(morpholinomethyl)-1,2,3,4-tetrahydrobenzo[h][1,6]naphthyridine-5(6H)-one dihydrochloride]
- SN-38 PF50 ([1]; 2 μM compound): 3.5
- Temozolomide PF50 ([1]; 2 μM compound): >2.8
- GI50 ([1]; Homo sapiens, 72 hours): 30 µM
- SN-38 PF50 ([2]; 2 μM compound): 3.0
- Temozolomide PF50 ([2]; 2 μM compound): 6.3
- GI50 ([2]; Homo sapiens, MCF7, 72 hours): 45 µM
- SN-38 PF50 ([3]; 2 μM compound): 2.2
- Temozolomide PF50 ([3]; 2 μM compound): >5.0
- GI50 ([3]; Homo sapiens, 72 hours): 52 µM
- SN-38 PF50 ([4]; 2 μM compound, GI50 SN-38 alone / GI50 with compound): 2.2
- Temozolomide PF50 ([4]; 2 μM compound, GI50 temozolomide alone / GI50 with compound): 3.2
- GI50 ([4]; Homo sapiens, 72 hours): 75 µM
- Infarct volume ([5]; 10 mg/kg intravenously at reperfusion): 252.38 mm^3
- Percent of infraction decrease ([5]; 10 mg/kg intravenously): 4%
- Infarct volume ([5]; 20 mg/kg intravenously at reperfusion): 124.68 mm^3
- Percent of infraction decrease ([5]; 20 mg/kg intravenously): 53%
- Infarct volume ([5]; 30 mg/kg intravenously at reperfusion): 162.88 mm^3
- Percent of infraction decrease ([5]; 30 mg/kg intravenously): 38%

Reference: patent US8815891B2, “Tricyclic derivative or pharmaceutically acceptable salts thereof, preparation method thereof, and pharmaceutical composition containing the same” (Je Il Pharmaceutical Co., Ltd., priority 2008, dated 2014)
